Values quoted from earlier work in US20060024422A1, “Salt substitute compositions having N-neohexyl-a-aspartyl-l- phenylalanine methyl ester for modifying flavor and methods of manufacturing the same” (Cumberland Packing Corp., priority 2004, published 2006).

Settings: on a weight basis

Compound: COC(=O)[C@H](Cc1ccccc1)NC(=O)[C@H](CC(=O)O)NCCC(C)(C)C [neotame, N-[N-(3,3-dimethylbutyl)-L-α-aspartyl]-L-phenylalanine 1-methyl ester]
- Sweetness relative to sucrose: approximately 8,000 times
